Measurements: patent US10035766B2, “Compositions for preventing and/or treating lysosomal storage disorders” (Amicus Therapeutics, Inc., priority 2009, dated 2018)
Residue numbers refer to the chain shown, from its start. Where a name gives a salt, the structure may show the parent alone. Read-outs that look alike come from different tables or passages of the source.

How the values were obtained:
[1] = target: T1, lysosomal GCase (Homo sapiens, UniProt P04062); assay: In situ lysosomal GCase inhibition and washout in fibroblasts from a normal subject (PFBFDβGlu substrate); type: cell-based; details: for in situ washout: after 16-24 hours at IC90, single exponential fit of activity recovery over 8 hours; for IC50: fibroblasts, compound 16-24 hours, substrate 1 hour
T1 construct: fibroblasts established from a normal subject; endogenous in cells; host or cells: fibroblasts established from a normal subject
T1 sequence (P04062 40-536): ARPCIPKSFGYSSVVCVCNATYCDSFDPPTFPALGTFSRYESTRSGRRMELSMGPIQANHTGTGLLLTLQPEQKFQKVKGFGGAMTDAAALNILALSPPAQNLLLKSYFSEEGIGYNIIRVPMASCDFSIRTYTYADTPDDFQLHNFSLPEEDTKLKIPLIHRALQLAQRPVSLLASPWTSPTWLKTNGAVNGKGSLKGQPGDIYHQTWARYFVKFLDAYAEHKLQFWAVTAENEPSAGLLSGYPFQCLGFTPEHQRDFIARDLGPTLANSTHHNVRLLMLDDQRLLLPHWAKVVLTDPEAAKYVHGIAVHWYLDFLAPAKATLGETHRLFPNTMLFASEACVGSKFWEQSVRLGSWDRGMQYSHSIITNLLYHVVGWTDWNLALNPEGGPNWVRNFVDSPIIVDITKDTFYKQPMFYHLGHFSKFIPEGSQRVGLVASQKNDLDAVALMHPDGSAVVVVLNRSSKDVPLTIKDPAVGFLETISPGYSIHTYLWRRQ
Experimental: The effect of the novel compounds of the present invention on lysosomal GCase activity was assayed in situ using fibroblasts established from a normal subject. Cells seeded in 48-well plates were incubated with the indicated concentrations of compound for 16-24 hours. For the dose-response assays, cells were incubated with the in situ substrate 5-(pentafluorobenzoylamino)fluorescein di-β-D-glucopyranoside (PFBFDβGlu) for 1 hour and subsequently lysed to determine the extent of substrate hydrolysis in the presence of compound. […] Inhibition was determined as the ratio of activity in the presence of compound to that in the absence of compound. […] Cells were washed extensively and incubated in drug-free medium to allow net compound efflux from cells. Cells were then tested for lysosomal GCase activity at 2 hour intervals over a total period of 8 hours following compound removal. The increase in activity over time was fitted with a single exponential function to determine the compound's washout time.

[2] = target: T2, GCase (Homo sapiens, UniProt P04062); assay: GCase activity enhancement (EC50, Emax) of Table 2B; type: cell-based
T2 sequence (P04062 40-536): T1 sequence (P04062 40-536)

[3] = target: T3, recombinant human GCase (rhGCase; Cerezyme®) (Homo sapiens, UniProt P04062, R534H); assay: In vitro enzyme inhibition assay (4-MU-β-D-Glc hydrolysis) for IC50 and Ki; type: biochemical; details: for Ki: Cheng-Prusoff from IC50
T3 construct: purchased Genzyme Corp
T3 sequence (P04062 40-536 R534H): T1 sequence (P04062 40-536) with R495H
Experimental: The binding affinity (defined here by Ki binding constant) of GCase for novel compounds of the present invention were empirically determined using enzyme inhibition assays. In brief, the enzyme inhibition assays used monitored the ability of a test compound to bind and prevent the hydrolysis of a fluorogenic substrate in a concentration-dependent manner. Specifically, the enzyme activity of recombinant human GCase (rhGCase; Cerezyme®, Genzyme Corp.) was measured using the 4-methylumbelliferyl-β-D-glucopyranoside (4-MU-β-D-Glc) fluorogenic substrate in the absence or in the presence of varying amounts of each test compound. […] The enzyme inhibition assays were performed at both pH 7.0 (endoplasmic reticulum pH) and at pH 5.2 (lysosomal pH) to gain insight into the binding affinity (i.e., potency) of compounds for GCase in the endoplasmic reticulum and lysososome.
Various concentrations of test compounds were prepared in buffer “M” consisting of 50 mM sodium phosphate buffer with 0.25% sodium taurocholate at pH 7.0 and pH 5.2. Enzyme (Cerezyme®, a recombinant form of the human enzyme β-glucocerebrosidase) was also diluted in the same buffer “M” at pH 7.0 and pH 5.2. […] Five microliters of diluted enzyme was added to 15 μl of the various inhibitor concentrations or buffer “M” alone and incubated at 37° C. for 1 hour with 50 μl of the substrate preparation to assess β-glucosidase activity at pH 7.0 and pH 5.2. […] Fluorescence was measured on a plate reader for 1 sec/well using 355 nm excitation and 460 nm emission.

[4] = pH 5.2 (lysosomal pH), read-out: Ki (μM) pH 5.2
[5] = pH 5.2 (lysosomal pH), read-out: IC50 (μM) pH 5.2
[6] = pH 7.0 (endoplasmic reticulum pH), read-out: Ki (μM) pH 7.0
[7] = pH 7.0 (endoplasmic reticulum pH), read-out: IC50 (μM) pH 7.0

SMILES | inhibition of GCase activity [1] | GCase activity enhancement compared to reference compound IFG-tartrate ([2]; same maximum level as IFG-tartrate at much lower concentration) | in situ washout [1] [h] | Emax [2] [%] | Ki [3, 4] [µM] | IC50 [3, 5] [µM] | Ki [3, 6] [µM] | IC50 [3, 7] [µM] | IC50 [1] [nM] | EC50 [2] [nM] | Emax (%) [2] [%]
CC(O)[C@H]1CNC[C@@H](O)[C@@H]1O (single isomer, unassigned) | inhibited GCase activity | concentration-dependent increase in GCase activity |  |  |  |  |  |  |  |  | 
CC(O)C1CNCC(O)C1O (single isomer, unassigned) [Compound 10] |  |  | 12 ± 1.65 | 99.3 ± 4.9 |  |  |  |  |  |  | 
O[C@@H]1[C@@H]([C@H](O)c2ccccc2)CNC[C@H]1O [(3R,4R,5R)-5-((S)-hydroxy(phenyl)methyl)-piperidine-3,4-diol] |  |  |  | 72.1 ± 3.5 |  |  |  |  |  |  | 
CC(C)(O)[C@H]1CNC[C@@H](O)[C@@H]1O [(3R,4R,5S)-5-(2-hydroxypropan-2-yl)piperidine-3,4-diol] |  |  |  | 109 ± 3.6 |  |  |  |  |  |  | 
C[C@@H](O)[C@H]1CNC[C@@H](O)[C@@H]1O [Compound 9, (3R,4R,5R)-5((R)-1-Hydroxyethyl)piperdine 3,4-diol] |  |  | 10.5 ± 1.75 |  | 0.044 ± 0.0017 | 0.107 ± 0.0041 | 0.01 ± 0.0004 | 0.02 ± 0.0008 | 518 ± 22 | 490 ± 60 | 83.7 ± 2.9
C[C@H](F)[C@H]1CNC[C@@H](O)[C@@H]1O [Compound 13, (3R,4R,5R)-5((S)-1-Fluoroethyl)piperdine 3,4-diol Hydrochloride] |  |  | 2.7 ± 0.12 | 92.8 ± 6.6 | 0.0498 ± 0.0015 | 0.0946 ± 0.0028 | 0.009 ± 0.0004 | 0.0171 ± 0.0008 | 650 ± 172 | 44 ± 5 | 
C[C@@H](F)[C@H]1CNC[C@@H](O)[C@@H]1O [Compound 14, (3R,4R,5R)-5((R)-(1-Fluoroethyl)piperdine 3,4-diol Hydrochloride] |  |  | 3.7 ± 0.63 | 89.7 ± 3.5 | 0.016 ± 0.0007 | 0.038 ± 0.0016 | 0.004 ± 0.0001 | 0.007 ± 0.0003 | 61 ± 19 | 26 ± 3 | 
